Results: patent publication US6737383B1, “Herbicidal oxadiazolidines” (priority 1999, dated 2004)

Legend:
bedstraw = experiment: Test B pre/postemergence bedstraw; format: in vivo, Galium aparine
How it was run: (§1)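 Test chemicals in a non-phytotoxic solvent mixture with surfactant were sprayed preemergence onto planted seeds and postemergence onto plants 2 to 18 cm tall (1- to 4-leaf stage). After twelve to sixteen days in a greenhouse, injury was visually rated against untreated controls from 0 (no effect) to 10 (complete control).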

blackgrass = experiment: Test B pre/postemergence blackgrass; format: in vivo, Alopecurus myosuroides
How it was run: as §1

surinam grass = experiment: Test B pre/postemergence surinam grass; format: in vivo, Brachiaria decumbens
How it was run: as §1

cocklebur = experiment: Test B pre/postemergence cocklebur; format: in vivo, Xanthium strumarium
How it was run: as §1

corn = experiment: Test B pre/postemergence corn; format: in vivo, Zea mays
How it was run: as §1

crabgrass = experiment: Test B pre/postemergence crabgrass; format: in vivo, Digitaria sanguinalis
How it was run: as §1

giant foxtail = experiment: Test B pre/postemergence giant foxtail; format: in vivo, Setaria faberii
How it was run: as §1

pigweed = experiment: Test B pre/postemergence pigweed; format: in vivo, Amaranthus retroflexus
How it was run: as §1

soybean = experiment: Test B pre/postemergence soybean; format: in vivo, Glycine max
How it was run: as §1

sugar beet = experiment: Test B pre/postemergence sugar beet; format: in vivo, Beta vulgaris
How it was run: as §1

velvetleaf = experiment: Test B pre/postemergence velvetleaf; format: in vivo, Abutilon theophrasti
How it was run: as §1

wheat = experiment: Test B pre/postemergence wheat; format: in vivo, Triticum aestivum
How it was run: as §1

wild oat = experiment: Test B pre/postemergence wild oat; format: in vivo, Avena fatua
How it was run: as §1

purple nutsedge = experiment: Test B pre/postemergence purple nutsedge; format: in vivo, Cyperus rotundus
How it was run: as §1

rice = experiment: Test B flood test rice; format: in vivo, Oryza sativa
How it was run: (§2)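 Plants were grown to the 2-leaf stage before treatment with test chemical, then held in a greenhouse for twelve to sixteen days. Injury was visually rated against untreated controls on a 0–10 scale, where 0 is no effect and 10 is complete control.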

duck salad = experiment: Test B flood test duck salad; format: in vivo, Heteranthera limosa
How it was run: as §2

[1] = Postemergence, Rate 125 g/ha, scale of 0 to 10 where 0 is no effect and 10 is complete control
[2] = Preemergence, Rate 62 g/ha, scale of 0 to 10 where 0 is no effect and 10 is complete control
[3] = Preemergence, Rate 125 g/ha, 0 is no effect, 10 is complete control
[4] = Preemergence, Rate 250 g/ha, scale 0 to 10, 0 is no effect, 10 is complete control
[5] = Preemergence, Rate 500 g/ha, scale 0 to 10 (0 no effect, 10 complete control)
[6] = Rate 62 g/ha, Postemergence, scale of 0 to 10 where 0 is no effect and 10 is complete control
[7] = Rate 250 g/ha, Postemergence, scale 0 to 10, 0 is no effect, 10 is complete control
[8] = Rate 500 g/ha, Postemergence, scale 0 to 10
[9] = Postemergence (flood test species), Rate 125 g/ha, scale of 0 to 10 where 0 is no effect and 10 is complete control
[10] = Rate 62 g/ha, Postemergence section, flood test species, scale of 0 to 10 where 0 is no effect and 10 is complete control
[11] = Rate 250 g/ha, Postemergence (flood test), scale 0 to 10, 0 is no effect, 10 is complete control
[12] = Rate 500 g/ha, listed under Postemergence (flood test species), scale 0 to 10

CC(C)N(C(=O)n1oc(=O)[nH]c1=O)c1ccc(F)cc1 [Compound 164]
1: Soybean plant response rating (soybean; [1])
7: Giant foxtail plant response rating (giant foxtail; [8])
2: Plant response rating, Crabgrass (crabgrass; [7]) | Giant foxtail plant response rating (giant foxtail; [5]) | Plant response rating, Soybean (soybean; [7]) | Soybean plant response rating (soybean; [8])
0: Bedstraw plant response rating (bedstraw; [1]) | Bedstraw plant response rating (bedstraw; [2]) | Bedstraw plant response rating (0 to 10 scale) (bedstraw; [3]) | Bedstraw plant response rating (bedstraw; [4]) | Bedstraw plant response rating (bedstraw; [5]) | Bedstraw plant response rating (bedstraw; [6]) | Blackgrass plant response rating (blackgrass; [1]) | Blackgrass plant response rating (blackgrass; [2]) | Blackgrass plant response rating (0 to 10 scale) (blackgrass; [3]) | Blackgrass plant response rating (blackgrass; [4]) | Blackgrass plant response rating (blackgrass; [5]) | Blackgrass plant response rating (blackgrass; [6]) | Plant response rating, Blackgrass (blackgrass; [7]) | Blackgrass plant response rating (blackgrass; [8]) | B. signalgrass plant response rating (surinam grass; [1]) | B. signalgrass plant response rating (surinam grass; [2]) | B. signalgrass plant response rating (0 to 10 scale) (surinam grass; [3]) | B. signalgrass plant response rating (surinam grass; [4]) | B. signalgrass plant response rating (surinam grass; [5]) | B. signalgrass plant response rating (surinam grass; [6]) | Plant response rating, B. signalgrass (surinam grass; [7]) | B. signalgrass plant response rating (surinam grass; Rate 500 g/ha, Postemergence, scale 0 to 10, 0 no effect, 10 complete control) | Cocklebur plant response rating (cocklebur; [1]) | Cocklebur plant response rating (cocklebur; [2]) | Cocklebur plant response rating (0 to 10 scale) (cocklebur; [3]) | Cocklebur plant response rating (cocklebur; [4]) | Cocklebur plant response rating (cocklebur; [5]) | Cocklebur plant response rating (cocklebur; [6]) | Plant response rating, Cocklebur (cocklebur; [7]) | Cocklebur plant response rating (cocklebur; [8]) | Corn plant response rating (corn; [1]) | Corn plant response rating (corn; [2]) | Corn plant response rating (0 to 10 scale) (corn; [3]) | Corn plant response rating (corn; [4]) | Corn plant response rating (corn; [5]) | Corn plant response rating (corn; [6]) | Plant response rating, Corn (corn; [7]) | Corn plant response rating (corn; [8]) | Crabgrass plant response rating (crabgrass; [1]) | Crabgrass plant response rating (crabgrass; [2]) | Crabgrass plant response rating (0 to 10 scale) (crabgrass; [3]) | Crabgrass plant response rating (crabgrass; [4]) | Crabgrass plant response rating (crabgrass; [6]) | Giant foxtail plant response rating (giant foxtail; [1]) | Giant foxtail plant response rating (giant foxtail; [2]) | Giant foxtail plant response rating (0 to 10 scale) (giant foxtail; [3]) | Giant foxtail plant response rating (giant foxtail; [4]) | Giant foxtail plant response rating (giant foxtail; [6]) | Plant response rating, Giant foxtail (giant foxtail; [7]) | Redroot pigweed plant response rating (pigweed; [1]) | Redroot pigweed plant response rating (pigweed; [2]) | Redroot pigweed plant response rating (0 to 10 scale) (pigweed; [3]) | Redroot pigweed plant response rating (pigweed; [4]) | Redroot pigweed plant response rating (pigweed; [5]) | Redroot pigweed plant response rating (pigweed; [6]) | Plant response rating, Redroot pigweed (pigweed; [7]) | Redroot pigweed plant response rating (pigweed; [8]) | Soybean plant response rating (soybean; [2]) | Soybean plant response rating (0 to 10 scale) (soybean; [3]) | Soybean plant response rating (soybean; [4]) | Soybean plant response rating (soybean; [5]) | Soybean plant response rating (soybean; [6]) | Sugarbeets plant response rating (sugar beet; [1]) | Sugarbeets plant response rating (sugar beet; [2]) | Sugarbeets plant response rating (0 to 10 scale) (sugar beet; [3]) | Sugarbeets plant response rating (sugar beet; [4]) | Sugarbeets plant response rating (sugar beet; [5]) | Sugarbeets plant response rating (sugar beet; [6]) | Plant response rating, Sugarbeets (sugar beet; [7]) | Sugarbeets plant response rating (sugar beet; [8]) | Velvetleaf plant response rating (velvetleaf; [2]) | Velvetleaf plant response rating (0 to 10 scale) (velvetleaf; [3]) | Velvetleaf plant response rating (velvetleaf; [4]) | Velvetleaf plant response rating (velvetleaf; [5]) | Plant response rating, Velvetleaf (velvetleaf; [7]) | Velvetleaf plant response rating (velvetleaf; [8]) | Wheat plant response rating (wheat; [2]) | Wheat plant response rating (0 to 10 scale) (wheat; [3]) | Wheat plant response rating (wheat; [4]) | Wheat plant response rating (wheat; [5]) | Plant response rating, Wheat (wheat; [7]) | Wheat plant response rating (wheat; [8]) | Wild oats plant response rating (wild oat; [2]) | Wild oats plant response rating (0 to 10 scale) (wild oat; [3]) | Wild oats plant response rating (wild oat; [4]) | Wild oats plant response rating (wild oat; [5]) | Plant response rating, Wild oats (wild oat; [7]) | Wild oats plant response rating (wild oat; [8]) | Nutsedge plant response rating (purple nutsedge; [1]) | Nutsedge plant response rating (purple nutsedge; [2]) | Nutsedge plant response rating (0 to 10 scale) (purple nutsedge; [3]) | Nutsedge plant response rating (purple nutsedge; [4]) | Nutsedge plant response rating (purple nutsedge; [5]) | Nutsedge plant response rating (purple nutsedge; [6]) | Plant response rating, Nutsedge (purple nutsedge; [7]) | Nutsedge plant response rating (purple nutsedge; [8]) | Rice plant response rating (rice; [9]) | Rice plant response rating (rice; [10]) | Plant response rating, Rice (rice; [11]) | Rice plant response rating (rice; [12]) | Ducksalad plant response rating (duck salad; [9]) | Ducksalad plant response rating (duck salad; [10]) | Plant response rating, Ducksalad (duck salad; [11]) | Ducksalad plant response rating (duck salad; [12])
4: Crabgrass plant response rating (crabgrass; [5])
9: Crabgrass plant response rating (crabgrass; [8])
